Results from article PMC4072508, “Genome-Wide Prediction and Validation of Peptides That Bind Human Prosurvival Bcl-2 Proteins” (PLoS Computational Biology, 2014).
Like-named read-outs stand apart in the source and are kept apart here. Residues, ends and D or L forms follow the SMILES beside them. No end group written: not given here.

Key:
Assay in all cases: Fluorescence polarization direct binding
Bcl-w = target: T1, Bcl-w (Homo sapiens, UniProt Q92843, Q133R)
T1 construct: myc-Bcl-w SPOT array & FP; made in house
T1 sequence (Q92843 with tags, fused parts or gaps Q133R): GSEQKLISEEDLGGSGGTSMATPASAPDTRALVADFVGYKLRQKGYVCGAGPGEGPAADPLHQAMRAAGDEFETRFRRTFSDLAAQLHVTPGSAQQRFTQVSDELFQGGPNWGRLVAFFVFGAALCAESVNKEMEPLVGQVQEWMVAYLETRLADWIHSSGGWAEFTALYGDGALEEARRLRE
Method: (§1) Peptides were purified by reverse-phase HPLC using a C18 column and a linear water/acetonitrile gradient. We re-analyzed the purified peptide by mass spectrometry if there was not a single well-defined peak in HPLC chromatogram.
(§2) Fluorescence polarization (FP) assays were done at 25°C in assay buffer (20 mM NaPO4, 50 mM NaCl, 1 mM EDTA, 0.001% Triton X (v/v), pH 7.8). […] For all FP experiments, the total well volume was 120 µl. […] Anisotropy was measured using a Spectramax M5 plate reader from Molecular Devices.
(§3) Direct binding curves were fit using Pylab/Scipy/Optimize to a single-site binding model utilized previously.
(§4) ^1Best-fit KD values determined by combining all replicate titration curves and fitting to a direct binding model (see Methods). […] Values with an X followed by a number indicate the highest concentration (the number, in nM) for which signal was measured yet no binding was detected.

Bcl-xL = target: T2, Bcl-xL (Homo sapiens, UniProt Q07817)
T2 construct: myc-Bcl-xL SPOT array & FP; made in house
Method: as §1, §2, §3, §4

Bfl-1 = target: T3, Bfl-1 (Homo sapiens, UniProt Q16548)
T3 construct: myc- Bfl-1 SPOT array & FP; made in house
T3 sequence (Q16548 with tags, fused parts or gaps): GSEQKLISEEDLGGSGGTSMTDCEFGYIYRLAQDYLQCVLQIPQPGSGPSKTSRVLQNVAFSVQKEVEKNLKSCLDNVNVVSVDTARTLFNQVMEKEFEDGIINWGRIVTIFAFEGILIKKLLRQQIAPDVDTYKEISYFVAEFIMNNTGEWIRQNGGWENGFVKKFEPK
Method: as §1, §2, §3, §4

Mcl-1 = target: T4, Mcl-1 (Homo sapiens, UniProt Q07820)
T4 construct: myc-Mcl-1 SPOT array & FP; made in house
Method: as §1, §2, §3, §4

Bcl-2 = target: T5, Bcl-2 (Homo sapiens, UniProt P10415, DEL53-91)
T5 construct: myc- Bcl-2 FP; made in house
Method: as §1, §2, §3, §4

[1] = FP direct binding, 10 nM FAM-labeled peptide, receptor titrated, 25°C, pH 7.8, fit of all replicate titrations, X+number in a cell = highest concentration (nM) measured with no binding detected, given here as >, SPNS1 fit to raw fluorescence, read-out: Best-fit KD, Bcl-w
[2] = FP direct binding, 10 nM FAM-labeled peptide, receptor titrated, 25°C, pH 7.8, fit of all replicate titrations, X+number in a cell = highest concentration (nM) measured with no binding detected, given here as >, SPNS1 fit to raw fluorescence, read-out: Best-fit KD, Bcl-xL
[3] = FP direct binding, 10 nM FAM-labeled peptide, receptor titrated, 25°C, pH 7.8, fit of all replicate titrations, X+number in a cell = highest concentration (nM) measured with no binding detected, given here as >, SPNS1 fit to raw fluorescence, read-out: Best-fit KD, Bfl-1
[4] = Binder class, Mcl-1, benchmark classification of peptides newly characterized in this study
[5] = FP direct binding, 10 nM FAM-labeled peptide, receptor titrated, 25°C, pH 7.8, fit of all replicate titrations, X+number in a cell = highest concentration (nM) measured with no binding detected, given here as >, SPNS1 fit to raw fluorescence
[6] = FP direct binding, 10 nM FAM-labeled peptide, receptor titrated, 25°C, pH 7.8, fit of all replicate titrations, X+number in a cell = highest concentration (nM) measured with no binding detected, given here as >, SPNS1 fit to raw fluorescence, read-out: Best-fit KD, Bcl-2
[7] = benchmark classification of peptides newly characterized in this study, read-out: Binder class, Bcl-w
[8] = benchmark classification of peptides newly characterized in this study, read-out: Binder class, Bcl-xL
[9] = benchmark classification of peptides newly characterized in this study, read-out: Binder class, Bfl-1
[10] = benchmark classification of peptides newly characterized in this study, read-out: Binder class, Bcl-2

T4 sequence (Q07820 with tags, fused parts or gaps): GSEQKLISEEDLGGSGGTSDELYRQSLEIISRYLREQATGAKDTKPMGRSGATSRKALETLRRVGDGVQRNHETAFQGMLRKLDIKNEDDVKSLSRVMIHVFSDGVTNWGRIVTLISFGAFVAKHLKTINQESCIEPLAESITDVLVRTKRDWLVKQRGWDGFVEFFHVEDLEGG
T2 sequence (Q07817 with tags, fused parts or gaps): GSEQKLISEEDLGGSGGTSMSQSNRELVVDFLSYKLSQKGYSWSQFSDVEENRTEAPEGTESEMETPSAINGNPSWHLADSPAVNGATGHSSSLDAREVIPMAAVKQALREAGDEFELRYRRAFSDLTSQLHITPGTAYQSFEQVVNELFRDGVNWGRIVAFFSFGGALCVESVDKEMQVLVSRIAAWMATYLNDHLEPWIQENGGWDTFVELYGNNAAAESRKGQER
T5 sequence (P10415 with tags, fused parts or gaps DEL53-91): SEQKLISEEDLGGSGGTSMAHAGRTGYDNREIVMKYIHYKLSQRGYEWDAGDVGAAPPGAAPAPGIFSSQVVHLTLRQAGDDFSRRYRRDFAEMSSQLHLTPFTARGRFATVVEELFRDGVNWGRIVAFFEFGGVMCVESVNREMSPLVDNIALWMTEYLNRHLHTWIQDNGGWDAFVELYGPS

| Molecule | Kd (Bcl-w; [1]) [nM] | Kd (Bcl-xL; [2]) [nM] | Kd (Bfl-1; [3]) [nM] | Kd (Mcl-1; [4]) [nM] | Kd (Mcl-1; [5]) [nM] | Kd (Bcl-2; [6]) [nM] | Kd (Bcl-w; [7]) [nM] | Kd (Bcl-xL; [8]) [nM] | Kd (Bfl-1; [9]) [nM] | Kd (Bcl-2; [10]) [nM] | also measured |
| --- | --- | --- | --- | --- | --- | --- | --- | --- | --- | --- | --- |
| CC(C)C[C@H](NC(=O)CNC(=O)[C@@H](NC(=O)[C@H](CCCCN)NC(=O)[C@H](CCCCN)NC(=O)[C@H](CC(N)=O)NC(=O)[C@H](CCC(=O)O)NC(=O)[C@H](CC(=O)O)NC(=O)[C@@H](N)[C@@H](C)O)C(C)C)C(=O)N[C@@H](C)C(=O)N[C@@H](CC(C)C)C(=O)N[C@@H](CCCCN)C(=O)N[C@@H](CC(=O)O)C(=O)N[C@@H](CC(C)C)C(=O)N[C@@H](C)C(=O)N[C@@H](CCCCN)C(=O)N[C@@H](CCC(N)=O)C(=O)N[C@@H](Cc1ccc(O)cc1)C(=O)N[C@@H](CO)C(=O)N[C@@H](CC(=O)O)C(=O)N[C@@H](CCCNC(=N)N)C(=O)N[C@@H](CC(C)C)C(=O)N[C@@H](CCC(=O)O)C(=O)N[C@@H](CS)C(=O)N[C@@H](CS)C(=O)N[C@@H](CCC(=O)O)C(N)=O [NUB1] (H-TDENKKVGLALKDLAKQYSDRLECCE-NH2) | > 4000 | 2720 | > 4000 | > 10000 | > 10000 | 562 | – | – | – | – | – |
| ELQELARKLQELADASENLLTEN-NH2 [TXNDC11] | 249 | 1490 | > 10000 | 1000 to 10000 | 2380 | 86 | < 1000 | 1000 to 10000 | > 10000 | < 1000 | – |
| RLVQQSKALKELADELQERAQRP-NH2 [TRIM58] | – | – | – | > 10000 | – | – | – | – | – | – | Kd (Bcl-w): 361 nM; Kd (Bcl-w; Binder class, Bcl-w, benchmark classification of peptides newly characterized in this study): > 10000 nM; Kd (Bcl-xL): 4550 nM; Kd (Bcl-xL; Binder class, Bcl-xL, benchmark classification of peptides newly characterized in this study): 1000 to 10000 nM; Kd (Bfl-1): > 4670 nM; Kd (Bfl-1; Binder class, Bfl-1, benchmark classification of peptides newly characterized in this study): > 10000 nM; Kd (Mcl-1): > 6070 nM; Kd (Bcl-2): 975 nM; Kd (Bcl-2; Binder class, Bcl-2, benchmark classification of peptides newly characterized in this study): < 1000 nM |
| GDSVLARMLRELGDSLRRPQLRL-NH2 [SLC19A1] | 18 | 1460 | 182 | < 1000 | 22 | 237 | < 1000 | 1000 to 10000 | < 1000 | < 1000 | – |
| LMARPAVALHFQSIADGFKEAVRYVL-NH2 [SOS2] | 5380 | > 6900 | > 3290 | > 10000 | > 4000 | 3290 | 1000 to 10000 | > 10000 | > 10000 | 1000 to 10000 | – |
| APYYLSRNLKQQADIIFMPYNYL-NH2 [RTEL1] | > 100000 | 1380 | > 4000 | 1000 to 10000 | > 4000 | 342 | 1000 to 10000 | 1000 to 10000 | > 10000 | 1000 to 10000 | – |
| AIRPRAVELRHLADDFINGNKKK-NH2 [MCF2L2] | 1120 | 292 | > 3370 | > 10000 | > 4000 | 60 | 1000 to 10000 | < 1000 | > 10000 | < 1000 | – |
| ATRRLSGFLRTLADRLEGTKELL-NH2 [MINA] | 1230 | 1010 | 1130 | > 10000 | > 10000 | 266 | 1000 to 10000 | 1000 to 10000 | 1000 to 10000 | < 1000 | – |
| FTGNNTAVQELKRVSEQFTATFRRKA-NH2 [TUBB4Q] | 2490 | 2050 | > 4670 | < 1000 | 1460 | 1410 | 1000 to 10000 | 1000 to 10000 | > 10000 | 1000 to 10000 | – |
| PILENPEILRKTADDFLNRIALT-NH2 [CCH] | 1920 | > 5720 | > 9610 | > 10000 | > 4000 | 7130 | 1000 to 10000 | > 10000 | > 10000 | 1000 to 10000 | – |
| GSGAWGLLLRRVGDDVLVHLLAR-NH2 [TERT] | 992 | – | 99 | < 1000 | 69 | 49 | < 1000 | 1000 to 10000 | < 1000 | < 1000 | – |
| RVEQMAIQIKEVGDRVNYIKRSL-NH2 [TRPM7] | 2490 | 679 | 1900 | > 10000 | 592 | 124 | < 1000 | < 1000 | 1000 to 10000 | < 1000 | – |
| LRLFLAQRLRWLADSAPASRATA-NH2 [NBEAL2] | 29 | 10 | 3270 | 1000 to 10000 | 3810 | 16 | < 1000 | < 1000 | 1000 to 10000 | < 1000 | Best-fit KD, Bcl-w (Bcl-w; [5]): bound tightly; Best-fit KD, Bcl-xL (Bcl-xL; [5]): bound tightly; Best-fit KD, Bcl-2 (Bcl-2; [5]): bound tightly |
| SYMVLAPVFGYLGDRYNRKYLMA-NH2 [SPNS1] | 871 | 96 | 278 | < 1000 | 19 | 28 | < 1000 | < 1000 | < 1000 | < 1000 | – |
| KKMTLSEIYRWIADNFPYYKNAG-NH2 [FOXJ2] | 85 | 103 | > 3370 | > 10000 | > 10000 | 130 | < 1000 | < 1000 | > 10000 | < 1000 | Best-fit KD, Bcl-w (Bcl-w; [5]): bound tightly; Best-fit KD, Bcl-xL (Bcl-xL; [5]): bound tightly; Best-fit KD, Bcl-2 (Bcl-2; [5]): bound tightly |
| AWGKFGGAFARYADEMKEIQERQ-NH2 [PURB] | > 1800 | > 100000 | > 4670 | > 10000 | > 4000 | 34 | > 10000 | > 10000 | > 10000 | < 1000 | – |
| CC[C@H](C)[C@H](NC(=O)[C@H](CCC(=O)O)NC(=O)[C@H](C)NC(=O)[C@H](CO)NC(=O)[C@H](Cc1ccccc1)NC(=O)[C@H](CCC(N)=O)NC(=O)[C@H](CC(=O)O)NC(=O)[C@H](C)NC(=O)[C@H](CC(C)C)NC(=O)[C@H](Cc1c[nH]cn1)NC(=O)[C@H](CCCNC(=N)N)NC(=O)[C@H](CC(C)C)NC(=O)[C@H](CCC(=O)O)NC(=O)[C@H](CCC(N)=O)NC(=O)[C@H](C)NC(=O)[C@H](CCCCN)NC(=O)[C@@H]1CCCN1C(=O)[C@H](CCCNC(=N)N)NC(=O)[C@@H](NC(=O)[C@@H](N)CO)[C@@H](C)CC)C(=O)N[C@@H](C)C(=O)N[C@@H](CCCNC(=N)N)C(=O)N[C@@H](CCCNC(=N)N)C(N)=O [MCF2L] | 7 | 4 | > 4100 | > 10000 | > 4000 | 6 | < 1000 | < 1000 | > 10000 | < 1000 | Best-fit KD, Bcl-w (Bcl-w; [5]): bound tightly; Best-fit KD, Bcl-xL (Bcl-xL; [5]): bound tightly; Best-fit KD, Bcl-2 (Bcl-2; [5]): bound tightly |
| ATKRETAATFLKKVAKEFGFQNNGFS-NH2 [NPLOC4] | > 4500 | > 100000 | > 4670 | 1000 to 10000 | > 4000 | 2060 | > 10000 | > 10000 | > 10000 | > 10000 | – |
